# In patent publication US12209075B2, “Pyridine-sulfonamide derivatives as sodium channel inhibitors” (GENENTECH, INC., priority 2018, dated 2025):
# Structures can show the parent of a compound that is named as a salt.
# Molecular target: hNav1.7 (Homo sapiens (Human), UniProt Q15858)
# Assay: Tritiated compound binding to membranes from cells expressing hNav1.7 and the β1 subunit (Nav1.7 LBA EVO)
# Settings: competitive binding vs [3H]compound, membranes with hNav1.7 and β1 subunit
# Procedure: Example 64a. Tritiated Compound Binding to Membranes Isolated from Cells that Heterologously Express hNav1.7 and the β1 Subunit
# Preparation of membranes containing recombinantly expressed sodium channels: Frozen recombinant cell pellets are thawed on ice and diluted to 4 times the cell pellet weight with ice cold 50 mM Tris HCl, pH 7.4 buffer. The cell suspensions are homogenized on ice using a motorized glass dounce homogeniser. Homogenates are further diluted 8.4 times with ice cold 50 mM Tris HCl, pH 7.4 buffer and then centrifuged at 200×g at 4° C. for 15 minutes. The supernatants are collected and centrifuged at 10000×g at 4° C. for 50 min. The pellets are then re-suspended in 100 mM NaCl, 20 mM Tris HCl, pH 7.4 buffer containing 1% v/v protease inhibitors (Calbiochem) and re-homogenized on ice. The homogenized membranes are then processed through a syringe equipped with a 26 gauge needle. Protein concentrations arer determined by Bradford Assay and the membranes are stored at −80° C.
# Radioligand Binding Studies: Saturation experiments. A competitive NaV1.7 inhibitor having a methyl group is tritiated. Three tritiums are incorporated in place of methyl hydrogens to generate [^3H]compound. Binding of this radioligand is performed in 5 mL borosilicate glass test tubes at room temperature. Binding is initiated by adding membranes to increasing concentrations of [^3H]compound in 100 mM NaCl, 20 mM Tris HCl, pH 7.4 buffer containing 0.01% w/v bovine serum albumin (BSA) for 18 h. Non-specific binding is determined in the presence of 1 μM unlabeled compound. After 18 h, the reactants are filtered through GF/C glass fiber filters presoaked in 0.5% w/v polyethylene imine. Filters are washed with 15 mL ice cold 100 mM NaCl, 20 mM Tris HCl, pH7.4 buffer containing 0.25% BSA to separate bound from free ligand. [^3H]compound bound to filters is quantified by liquid scintillation counting.
# Competitive binding experiments: Binding reactions are performed in 96-well polypropylene plates at room temperature for 18 h. In 360 μL, membranes are incubated with 100 pM [^3H]compound and increasing concentrations of Test Compound. Non-specific binding is defined in the presence of 1 μM unlabeled compound. Reactions are transferred and filtered through 96-well glass fiber/C filter plates presoaked with 0.5% polyethylene imine. The filtered reactions are washed 5 times with 200 μL ice cold buffer containing 0.25% BSA. Bound radioactivity is determined by liquid scintillation counting.
# Data Analysis: For saturation experiments, non-specific binding is subtracted from total binding to provide specific binding and these values are recalculated in terms of pmol ligand bound per mg protein. Saturation curves are constructed and dissociation constants are calculated using the single site ligand binding model: Beq=(Bmax*X)/(X+Kd), where Beq is the amount of ligand bound at equilibrium, Bmax is the maximum receptor density, Kd is the dissociation constant for the ligand, and X is the free ligand concentration. For competition studies percent inhibition is determined and IC50 values are calculated using a 4 parameter logistic model (% inhibition=(A+((B−A)/(1+((x/C)^D)))) using XLfit, where A and B are the maximal and minimum inhibition respectively, C is the IC50 concentration and D is the (Hill) slope.
# Example 64b. Tritiated Compound Binding to Membranes Isolated from Cells that Heterologous Express hNav1.7 and the β1 Subunit
# Preparation of membranes containing recombinantly expressed sodium channels: Following the procedure described in 31a, and making modifications as required to: centrifuge supernatants at 100000×g instead of 10000×g; re-suspend pellets in a buffer containing 0.01% BSA in addition to 100 mM NaCl, 20 mM Tris HCl, pH 7.4 buffer, and 1% v/v […]; and storing membranes at −80° C. in single use aliquots instead of pooled. […]
# hNav1.7, sequence (Q15858 whole entry, looked up): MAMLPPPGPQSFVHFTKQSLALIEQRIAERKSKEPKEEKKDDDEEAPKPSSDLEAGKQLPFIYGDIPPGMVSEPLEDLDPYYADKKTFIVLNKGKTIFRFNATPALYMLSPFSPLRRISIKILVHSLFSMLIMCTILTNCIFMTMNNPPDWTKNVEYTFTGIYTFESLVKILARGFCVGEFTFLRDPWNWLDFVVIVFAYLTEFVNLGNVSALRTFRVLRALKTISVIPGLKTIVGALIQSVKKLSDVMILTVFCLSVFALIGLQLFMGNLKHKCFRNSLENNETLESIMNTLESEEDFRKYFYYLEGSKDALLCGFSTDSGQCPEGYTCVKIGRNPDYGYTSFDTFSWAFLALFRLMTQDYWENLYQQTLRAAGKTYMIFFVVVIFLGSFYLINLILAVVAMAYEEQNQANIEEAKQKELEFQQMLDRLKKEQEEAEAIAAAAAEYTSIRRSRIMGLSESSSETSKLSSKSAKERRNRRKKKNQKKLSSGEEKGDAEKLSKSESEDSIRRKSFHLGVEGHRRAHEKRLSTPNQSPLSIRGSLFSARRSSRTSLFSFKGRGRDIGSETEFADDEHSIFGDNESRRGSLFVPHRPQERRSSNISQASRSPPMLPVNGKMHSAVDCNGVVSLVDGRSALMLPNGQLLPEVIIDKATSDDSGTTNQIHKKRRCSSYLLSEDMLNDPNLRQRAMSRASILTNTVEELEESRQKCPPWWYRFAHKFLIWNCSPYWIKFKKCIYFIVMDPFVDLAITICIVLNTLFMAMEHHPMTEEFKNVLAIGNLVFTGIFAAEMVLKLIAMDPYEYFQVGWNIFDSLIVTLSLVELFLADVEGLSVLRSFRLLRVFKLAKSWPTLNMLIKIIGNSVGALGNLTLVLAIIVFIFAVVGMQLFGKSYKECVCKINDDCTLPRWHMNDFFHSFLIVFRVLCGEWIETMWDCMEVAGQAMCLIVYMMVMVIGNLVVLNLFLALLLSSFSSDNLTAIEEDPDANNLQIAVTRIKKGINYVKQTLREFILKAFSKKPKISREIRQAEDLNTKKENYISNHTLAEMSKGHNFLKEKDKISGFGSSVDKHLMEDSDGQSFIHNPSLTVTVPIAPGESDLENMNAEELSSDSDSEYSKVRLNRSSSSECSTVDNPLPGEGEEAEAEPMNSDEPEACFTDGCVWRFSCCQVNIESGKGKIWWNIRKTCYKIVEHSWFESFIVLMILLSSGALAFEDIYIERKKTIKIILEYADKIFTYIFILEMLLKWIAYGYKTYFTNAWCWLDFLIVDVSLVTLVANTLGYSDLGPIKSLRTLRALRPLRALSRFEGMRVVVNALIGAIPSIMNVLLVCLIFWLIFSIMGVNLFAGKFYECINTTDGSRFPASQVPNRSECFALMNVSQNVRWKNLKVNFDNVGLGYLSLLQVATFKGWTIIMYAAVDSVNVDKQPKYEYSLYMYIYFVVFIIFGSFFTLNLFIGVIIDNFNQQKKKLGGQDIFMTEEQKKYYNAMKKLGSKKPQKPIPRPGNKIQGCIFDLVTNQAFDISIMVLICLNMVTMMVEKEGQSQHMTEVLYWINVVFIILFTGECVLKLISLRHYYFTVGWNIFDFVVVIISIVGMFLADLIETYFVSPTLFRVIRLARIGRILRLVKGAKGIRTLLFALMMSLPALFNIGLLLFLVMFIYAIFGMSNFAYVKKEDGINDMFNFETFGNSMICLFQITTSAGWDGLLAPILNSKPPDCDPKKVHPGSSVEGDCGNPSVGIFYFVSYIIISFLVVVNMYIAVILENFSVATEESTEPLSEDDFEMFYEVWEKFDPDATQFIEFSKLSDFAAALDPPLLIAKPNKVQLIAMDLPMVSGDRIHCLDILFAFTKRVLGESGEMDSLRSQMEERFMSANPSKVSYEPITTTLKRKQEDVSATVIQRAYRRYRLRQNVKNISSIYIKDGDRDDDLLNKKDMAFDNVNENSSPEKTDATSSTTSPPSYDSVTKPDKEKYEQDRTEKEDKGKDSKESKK
# hNav1.7, sequence (Q07699 whole entry partner, looked up): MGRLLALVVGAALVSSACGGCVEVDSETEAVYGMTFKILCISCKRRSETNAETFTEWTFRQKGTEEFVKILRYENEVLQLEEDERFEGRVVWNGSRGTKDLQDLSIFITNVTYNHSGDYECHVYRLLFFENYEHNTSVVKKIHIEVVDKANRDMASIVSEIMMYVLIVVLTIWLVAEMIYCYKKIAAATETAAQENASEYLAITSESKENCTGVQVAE
row,Compound,IC50
1,"Cc1nc(O[C@H]2CC[C@H](c3cc(F)cc(C(F)(F)F)c3)C[C@@H]2N(C)C)ccc1S(=O)(=O)Nc1ccncn1 [Example 42, 6-(((1S,2S,4S)-2-(Dimethylamino)-4-(3-fluoro-5-(trifluoromethyl)phenyl)cyclohexyl)oxy)-2-methyl-N-(pyrimidin-4-yl)pyridine-3-sulfonamide]",0.72 nM
2,"Cc1nc(O[C@H]2CC[C@H](c3cccc(C(F)(F)F)c3)C[C@@H]2N(C)C)c(F)cc1S(=O)(=O)Nc1ccncn1 [Example 53, 6-(((1S,2S,4S)-2-(Dimethylamino)-4-(3-(trifluoromethyl)phenyl)cyclohexyl)oxy)-5-fluoro-2-methyl-N-(pyrimidin-4-yl)pyridine-3-sulfonamide formate]",0.615 nM
3,"CN(C)[C@H]1C[C@@H](c2ccc(Cl)c(C(F)(F)F)c2)CC[C@@H]1Nc1ccc(S(=O)(=O)Nc2ccncn2)cn1 [Example 11, 6-(((1S,2S,4S)-4-(4-chloro-3-(trifluoromethyl)phenyl)-2-(dimethylamino)cyclohexyl)amino)-N-(pyrimidin-4-yl)pyridine-3-sulfonamide formate]",16.6 nM
4,"CN(C)[C@H]1C[C@@H](c2cccc(OC(F)(F)F)c2)CC[C@@H]1Oc1ccc(S(=O)(=O)Nc2ccncn2)cn1 [Example 25, 6-(((1S,2S,4S)-2-(dimethylamino)-4-(3-(trifluoromethoxy)phenyl)cyclohexyl)oxy)-N-(pyrimidin-4-yl)pyridine-3-sulfonamide formate]",44.8 nM
5,"CN(C)[C@H]1C[C@@H](c2cccc(SC(F)(F)F)c2)CC[C@@H]1Oc1ccc(S(=O)(=O)Nc2ccncn2)cn1 [Example 63, 6-(((1S,2S,4S)-2-(Dimethylamino)-4-(3-((trifluoromethyl)thio)phenyl)cyclohexyl)oxy)-N-(pyrimidin-4-yl)pyridine-3-sulfonamide]",0.635 nM
6,"COc1cc(S(=O)(=O)Nc2ccncn2)cnc1O[C@H]1CC[C@H](c2cccc(C(F)(F)F)c2)C[C@@H]1N(C)C [Example 61, 6-(((1S,2S,4S)-2-(Dimethylamino)-4-(3-(trifluoromethyl)phenyl)cyclohexyl)oxy)-5-methoxy-N-(pyrimidin-4-yl)pyridine-3-sulfonamide formate]",1.9 nM
7,"O=S(=O)(Nc1ccncn1)c1cnc(O[C@H]2CC[C@H](c3cccc(C(F)(F)F)n3)C[C@@H]2N2CCCC2)c(Cl)c1 [Example 40, 5-chloro-N-(pyrimidin-4-yl)-6-(((1S,2S,4S)-2-(pyrrolidin-1-yl)-4-(6-(trifluoromethyl)pyridin-2-yl)cyclohexyl)oxy)pyridine-3-sulfonamide]",0.955 nM
8,"CN(C)[C@H]1C[C@@H](c2cccc(C(F)(F)F)c2)CC[C@@H]1Oc1ccc(S(=O)(=O)Nc2ccncn2)c(Cl)n1 [Example 22, 2-Chloro-6-(((1S,2S,4S)-2-(dimethylamino)-4-(3-(trifluoromethyl)phenyl)cyclohexyl)oxy)-N-(pyrimidin-4-yl)pyridine-3-sulfonamide]",40 nM
9,"CN(C)[C@H]1C[C@@H](c2cccc(C(F)(F)F)c2)CC[C@@H]1Nc1ccc(S(=O)(=O)Nc2ccncn2)nc1 [Example 5, 5-(((1S,2S,4S)-2-(Dimethylamino)-4-(3-(trifluoromethyl)phenyl)cyclohexyl)amino)-N-(pyrimidin-4-yl)pyridine-2-sulfonamide]",66.4 nM
10,"Cc1nc(O[C@H]2CC[C@H](c3cccc(OC(F)F)c3)C[C@@H]2N(C)C)ccc1S(=O)(=O)Nc1ccncn1 [Example 52, 6-(((1S,2S,4S)-4-(3-(difluoromethoxy)phenyl)-2-(dimethylamino)cyclohexyl)oxy)-2-methyl-N-(pyrimidin-4-yl)pyridine-3-sulfonamide]",0.615 nM
11,"Cc1nc(O[C@H]2CC[C@H](c3cccc(C(F)(F)F)c3)C[C@@H]2N2CCCC2)ccc1S(=O)(=O)Nc1ccncn1 [Example 29, 2-Methyl-N-(pyrimidin-4-yl)-6-(((1S,2S,4S)-2-(pyrrolidin-1-yl)-4-(3-(trifluoromethyl)phenyl)-cyclohexyl)oxy)pyridine-3-sulfonamide]",67.4 nM
12,"CN(C)[C@H]1C[C@@H](c2cccc(C(F)(F)F)c2)CC[C@@H]1Oc1ccc(S(=O)(=O)Nc2ccncn2)c(C2CC2)n1 [Example 34, 2-Cyclopropyl-6-(((1S,2S,4S)-2-(dimethylamino)-4-(3-(trifluoromethyl)phenyl)-cyclohexyl)oxy)-N-(pyrimidin-4-yl)pyridine-3-sulfonamide]",1.15 nM
13,"Cc1cc(S(=O)(=O)Nc2ccncn2)cnc1O[C@H]1CC[C@H](c2cccc(C(F)(F)F)c2)C[C@@H]1N(C)C [Example 15, 6-(((1S,2S,4S)-2-(Dimethylamino)-4-(3-(trifluoromethyl)phenyl)cyclohexyl)oxy)-5-methyl-N-(pyrimidin-4-yl)pyridine-3-sulfonamide]",40.8 nM
14,"CCc1cc(S(=O)(=O)Nc2ccncn2)cnc1O[C@H]1CC[C@H](c2cccc(C(F)(F)F)c2)C[C@@H]1N(C)C [Example 24, 6-(((1S,2S,4S)-2-(Dimethylamino)-4-(3-(trifluoromethyl)phenyl)cyclohexyl)oxy)-5-ethyl-N-(pyrimidin-4-yl)pyridine-3-sulfonamide formate]",66.4 nM
15,"Cc1nc(O[C@H]2CC[C@H](c3ccc(Cl)c(C(F)(F)F)n3)C[C@@H]2N(C)C)ccc1S(=O)(=O)Nc1ccncn1 [Example 62, 6-(((1S,2S,4S)-4-(5-chloro-6-(trifluoromethyl)pyridin-2-yl)-2-(dimethylamino)-cyclohexyl)oxy)-2-methyl-N-(pyrimidin-4-yl)pyridine-3-sulfonamide]",1.89 nM
16,"CCc1nc(O[C@H]2CC[C@H](c3cccc(C(F)(F)F)c3)C[C@@H]2N(C)C)ccc1S(=O)(=O)Nc1ccncn1 [Example 33, 6-(((1S,2S,4S)-2-(Dimethylamino)-4-(3-(trifluoromethyl)phenyl)cyclohexyl)oxy)-2-ethyl-N-(pyrimidin-4-yl)pyridine-3-sulfonamide]",1.54 nM
17,"CN(C)[C@H]1C[C@@H](c2cccc(OC(F)(F)F)c2)CC[C@@H]1Oc1ncc(S(=O)(=O)Nc2ccncn2)cc1Cl [Example 13, 5-chloro-6-(((1S,2S,4S)-2-(dimethylamino)-4-(3-(trifluoromethoxy)phenyl)cyclohexyl)oxy)-N-(pyrimidin-4-yl)pyridine-3-sulfonamide]",13.8 nM
18,"O=S(=O)(Nc1ccncn1)c1ccc(O[C@H]2CC[C@H](c3cccc(C(F)(F)F)c3)C[C@@H]2N2CCCC2)nc1 [Example 17, N-(pyrimidin-4-yl)-6-(((1S,2S,4S)-2-(pyrrolidin-1-yl)-4-(3-(trifluoromethyl)phenyl)cyclohexyl)oxy)-pyridine-3-sulfonamide formate]",1.18 nM
19,"Cc1nc(O[C@H]2CC[C@H](c3cccc(C(F)(F)F)c3C)C[C@@H]2N(C)C)ccc1S(=O)(=O)Nc1ccncn1 [Example 60, 6-(((1S,2S,4S)-2-(dimethylamino)-4-(2-methyl-3-(trifluoromethyl)phenyl)cyclohexyl)oxy)-2-methyl-N-(pyrimidin-4-yl)pyridine-3-sulfonamide]",3.51 nM
20,"Cc1nc(O[C@H]2CC[C@H](c3cccc(C(F)(F)F)c3)C[C@@H]2N2CCOCC2)ccc1S(=O)(=O)Nc1ccncn1 [Example 55, 2-Methyl-6-(((1S,2S,4S)-2-morpholino-4-(3-(trifluoromethyl)phenyl)cyclohexyl)oxy)-N-(pyrimidin-4-yl)pyridine-3-sulfonamide]",1.72 nM
21,"CN(C)[C@H]1C[C@@H](c2cc(C(F)(F)F)ccc2F)CC[C@@H]1Oc1ccc(S(=O)(=O)Nc2ccncn2)c(Cl)n1 [Example 44, 2-Chloro-6-(((1S,2S,4S)-2-(dimethylamino)-4-(2-fluoro-5-(trifluoromethyl)phenyl)-cyclohexyl)oxy)-N-(pyrimidin-4-yl)pyridine-3-sulfonamide formate]",0.72 nM
